Series [1] has as its target hCA IX (Homo sapiens, UniProt Q16790). In words: stopped flow CO2 hydrase assay, hCA IX.
Description: (§1) A stopped flow CO2 hydrase assay was adopted using an SX.18 MV-R Applied Photophysics (Oxford, UK) stopped-flow instrument to assess the inhibition against the various CA isozymes[33].
Series [2] concerns the target hCA XII (Homo sapiens, UniProt O43570). The series can be described thus: stopped flow CO2 hydrase assay, hCA XII.
Description: as §1
Series [3] has as its target hCA I (Homo sapiens, UniProt P00915). In words: stopped flow CO2 hydrase assay, hCA I. The note with it: for inhibitory activity against hCA I (in words): abstract statement.
Description: as §1
In series [4] the target is hCA II (Homo sapiens, UniProt P00918). In words: stopped flow CO2 hydrase assay, hCA II.
Description: as §1
For series [5], the system named is hCAII. Conditions: read-out: IC50 against hCAII; cited from earlier work.

Data on 24 molecules can be found in publication PMC9542353, “Design and synthesis of some new benzoylthioureido phenyl derivatives targeting carbonic anhydrase enzymes” (Journal of Enzyme Inhibition and Medicinal Chemistry, 2022).

hCA XII, sequence (O43570 25-354): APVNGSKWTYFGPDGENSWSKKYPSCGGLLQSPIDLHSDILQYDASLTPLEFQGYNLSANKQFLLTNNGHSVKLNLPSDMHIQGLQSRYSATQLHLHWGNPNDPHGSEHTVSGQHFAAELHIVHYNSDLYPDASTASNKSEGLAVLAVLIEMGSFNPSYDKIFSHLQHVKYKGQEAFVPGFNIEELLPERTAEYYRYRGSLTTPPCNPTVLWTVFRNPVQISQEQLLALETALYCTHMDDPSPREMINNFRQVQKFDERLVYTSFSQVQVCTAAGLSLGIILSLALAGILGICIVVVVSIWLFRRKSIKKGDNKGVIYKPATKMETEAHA
hCA I, sequence (P00915 whole entry): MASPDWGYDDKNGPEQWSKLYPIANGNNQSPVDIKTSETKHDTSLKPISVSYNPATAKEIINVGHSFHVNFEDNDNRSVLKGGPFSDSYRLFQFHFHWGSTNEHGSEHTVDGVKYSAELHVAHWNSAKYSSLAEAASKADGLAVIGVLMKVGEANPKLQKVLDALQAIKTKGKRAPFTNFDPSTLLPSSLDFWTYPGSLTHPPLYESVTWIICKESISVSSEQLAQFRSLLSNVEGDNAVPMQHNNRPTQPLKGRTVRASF

Take `NS(=O)(=O)c1ccc(NC(=S)NC(=O)c2ccccc2)cc1` [Compound 4a, N-[(4-Sulphamoylphenyl)carbamothioyl]benzamide]: the Ki in series [1] turned out to be 106 nM; in series [2] it was 57.4 nM.

For the molecule `NS(=O)(=O)c1ccc(NC(=S)NC(=O)c2ccc(Cl)cc2)cc1` [Compound 4b, 4-Chloro-N-[(4-sulfamoylphenyl)carbamothioyl]benzamide], the melting point lay in the range of 226 to 234 °C. Further, in series [3], the inhibitory constant (Ki) is 58.5 nM and the “inhibitory activity against hCA I (in words)” value (“inhibitory activity” for short) is listed as “significant inhibitory activity”. This molecule also yielded a Ki in series [1] of 115 nM. In series [4], the affinity, expressed as Ki, was 58.1 nM. In series [2], the Ki is greater than 100000 nM.

Molecule `NS(=O)(=O)c1ccc(NC(=S)NC(=O)c2ccc(Cl)c(Cl)c2)cc1` [Compound 4c, 3,4-Dichloro-N-[(4-sulphamoylphenyl)carbamothioyl]benzamide] registered a melting point of 206 to 208 °C. In addition, in series [3], the affinity corresponds to a Ki of 40.4 nM and the “inhibitory activity” value is on record as “significant inhibitory activity”. Further, the inhibition constant Ki in series [1] is greater than 100000 nM. The molecule further displayed an inhibition constant (Ki) in series [4] of 90 nM. Also, the Ki in series [2] was 88.1 nM.

`NS(=O)(=O)c1ccc(NC(=S)NC(=O)c2ccc(Br)cc2)cc1` [Compound 4d, 4-Bromo-N-[(4-sulfamoylphenyl)carbamothioyl]benzamide] yielded a melting point of 215 to 217 °C. Besides, in series [3], the affinity, expressed as Ki, was 65 nM and the “inhibitory activity” value is “significant inhibitory activity”. The molecule also returned a Ki in series [1] greater than 100000 nM. Also, affinity in series [4] was put at a Ki of 67 nM. This molecule had an inhibition constant (Ki) in series [2] of 82 nM.

The molecule `O=C(O)c1ccc(NC(=S)NC(=O)c2ccccc2)cc1` [Compound 5a, 4-(3-Benzoylthioureido)benzoic acid] had a melting point of 212 to 224 °C. In series [3], this molecule gave an inhibition constant Ki of 1500 nM. The inhibition constant (Ki) in series [1] was 2930 nM. The molecule further gave a Ki in series [4] of 465 nM. Besides, in series [2], the Ki was greater than 100000 nM.

In the case of `O=C(O)c1ccc(NC(=S)NC(=O)c2ccc(Cl)cc2)cc1` [Compound 5b, 4-[3-(4-Chlorobenzoyl)thioureido]benzoic acid], the melting point was in the range of 232 to 240 °C. Besides, the inhibition constant Ki in series [3] was determined as 8800 nM. The molecule also returned a Ki in series [1] greater than 100000 nM. Further, the inhibition constant Ki in series [4] came to 5540 nM. The molecule also had a Ki in series [2] greater than 100000 nM.

On to `O=C(O)c1ccc(NC(=S)NC(=O)c2ccc(Cl)c(Cl)c2)cc1` [Compound 5c, 4-[3-(3,4-Dichlorobenzoyl)thioureido]benzoic acid], for which the melting point was in the range of 216 to 218 °C. This molecule came in with a Ki in series [3] greater than 100000 nM. Also, the inhibition constant Ki in series [1] was found to be 1740 nM. For the same molecule, in series [4], the Ki is 6000 nM. Also, the inhibitory constant (Ki) in series [2] is greater than 100000 nM.

Molecule `O=C(O)c1ccc(NC(=S)NC(=O)c2ccc(Br)cc2)cc1` [Compound 5d, 4-[3-(4-Bromobenzoyl)thioureido]benzoic acid] came in with a melting point of 206 to 215 °C. Moreover, in series [3], the inhibition constant (Ki) is 5560 nM and the “inhibitory activity” value is recorded as “significant inhibitory activity”. For the same molecule, the Ki in series [1] was greater than 100000 nM. This molecule returned a Ki in series [4] greater than 100000 nM. This molecule also showed an inhibition constant Ki in series [2] greater than 100000 nM.

In turn, `CCOC(=O)c1ccc(NC(=S)NC(=O)c2ccccc2)cc1` [Compound 6a, Ethyl-4-(3-benzoylthioureido)benzoate] displayed a melting point of 223 to 235 °C. The molecule also registered a Ki in series [3] greater than 100000 nM. This molecule also yielded an inhibitory constant (Ki) in series [1] of 1740 nM. In addition, the Ki in series [4] was greater than 100000 nM. Further, the inhibitory constant (Ki) in series [2] was greater than 100000 nM.

The molecule `CCOC(=O)c1ccc(NC(=S)NC(=O)c2ccc(Cl)cc2)cc1` [Compound 6b, Ethyl 4-[3-(4-chlorobenzoyl)thioureido]benzoate] gave a melting point of 219 to 221 °C. This molecule showed an inhibition constant (Ki) in series [3] greater than 100000 nM. The inhibition constant Ki in series [1] amounted to 1400 nM. Also, the inhibition constant Ki in series [4] was greater than 100000 nM. Besides, in series [2], the Ki was greater than 100000 nM.

`CCOC(=O)c1ccc(NC(=S)NC(=O)c2ccc(Cl)c(Cl)c2)cc1` [Compound 6c, Ethyl 4-[3-(3,4-dichlorobenzoyl)thioureido]benzoate]: the melting point was in the range of 216 to 218 °C. This molecule also returned a Ki in series [3] of 809 nM. Also, the inhibition constant (Ki) in series [1] worked out at 239 nM. This molecule came in with a Ki in series [4] greater than 100000 nM. This molecule also displayed a Ki in series [2] greater than 100000 nM.

For `CCOC(=O)c1ccc(NC(=S)NC(=O)c2ccc(Br)cc2)cc1` [Compound 6d, Ethyl-4-[3-(4-bromobenzoyl)thioureido]benzoate], the melting point was 218 to 220 °C. Also, the affinity in series [3] corresponds to a Ki of 85.4 nM. The same molecule came in with a Ki in series [1] greater than 100000 nM. Further, in series [4], the Ki was 31 nM. The molecule also came in with a Ki in series [2] greater than 100000 nM.

`COc1cc(NC(C)=O)ccc1C(=O)NC(=S)Nc1ccc(S(N)(=O)=O)cc1` [Compound 12a, 4-Acetamido-2-methoxy-N-[(4-sulfamoylphenyl)carbamothioyl]benzamide]: the melting point is 225 to 227 °C. In series [3], the Ki was found to be 67.6 nM and the “inhibitory activity” value was “significant inhibitory activity”. The same molecule gave a Ki in series [1] of 32.2 nM. In series [4], this molecule registered an inhibition constant (Ki) of 15.5 nM. In series [2], this molecule had an inhibitory constant (Ki) of 83 nM.

The molecule `COc1cc(NC(=O)C(C)C)ccc1C(=O)NC(=S)Nc1ccc(S(N)(=O)=O)cc1` [Compound 12b, 4-Isobutyramido-2-methoxy-N-[(4-sulfamoylphenyl)carbamothioyl] benzamide] came in with a melting point of 248 to 250 °C. The inhibitory constant (Ki) in series [3] is greater than 100000 nM. For the same molecule, the inhibition constant Ki in series [1] was 1780 nM. This molecule also showed a Ki in series [4] of 2770 nM. The inhibitory constant (Ki) in series [2] is greater than 100000 nM.

`COc1cc(NC(=O)c2ccc(C)cc2)ccc1C(=O)NC(=S)Nc1ccc(S(N)(=O)=O)cc1` [Compound 12c, 2-Methoxy-4-(4-methylbenzamido)-N-[(4-sulfamoylphenyl)carbamothioyl] benzamide] displayed a melting point of 250 to 252 °C. Further, in series [3], the Ki came out at 91 nM and the “inhibitory activity” value is given as “significant inhibitory activity”. The same molecule had an inhibition constant Ki in series [1] of 144 nM. Affinity in series [4] was put at a Ki of 94.2 nM. This molecule also showed a Ki in series [2] of 226 nM.

In the case of `COc1cc(NC(C)=O)ccc1C(=O)NC(=S)Nc1ccc(C(=O)O)cc1` [Compound 13a, 4-[3-(4-Acetamido-2-methoxybenzoyl)thioureido]benzoic acid], the melting point lay in the range of 245 to 247 °C. Moreover, the inhibitory constant (Ki) in series [3] is 1710 nM. Further, the Ki in series [1] is 1090 nM. Further, the affinity in series [4] corresponds to a Ki of 647 nM. Further, the inhibition constant Ki in series [2] is greater than 100000 nM.

In turn, `COc1cc(NC(=O)C(C)C)ccc1C(=O)NC(=S)Nc1ccc(C(=O)O)cc1` [Compound 13b] returned a melting point of 256 to 258 °C. The molecule also yielded an inhibition constant Ki in series [3] greater than 100000 nM. In series [1], this molecule came in with a Ki of 289 nM. The affinity in series [4] corresponds to a Ki of 193 nM. The inhibitory constant (Ki) in series [2] was greater than 100000 nM.

Take `COc1cc(NC(=O)c2ccc(C)cc2)ccc1C(=O)NC(=S)Nc1ccc(C(=O)O)cc1` [Compound 13c, 4-(3-(2-Methoxy-4-(4-methylbenzamido)benzoyl)thioureido]benzoic acid]: the melting point fell in the range of 281 to 283 °C. Moreover, in series [3], the Ki is greater than 100000 nM. Further, the affinity in series [1], expressed as Ki, was 802 nM. Moreover, the Ki in series [4] was 504 nM. This molecule had an inhibitory constant (Ki) in series [2] greater than 100000 nM.

With `CCOC(=O)c1ccc(NC(=S)NC(=O)c2ccc(NC(C)=O)cc2OC)cc1` [Compound 14a, Ethyl-4-[3-(4-acetamido-2-methoxybenzoyl)thioureido]benzoate], the melting point was 237 to 239 °C. In series [3], this molecule came in with a Ki greater than 100000 nM. Besides, the inhibitory constant (Ki) in series [1] came to 1150 nM. Besides, in series [4], the Ki is greater than 100000 nM. Moreover, in series [2], the Ki is greater than 100000 nM.

In the case of `CCOC(=O)c1ccc(NC(=S)NC(=O)c2ccc(NC(=O)C(C)C)cc2OC)cc1` [Compound 14b, Ethyl-4-[3-(4-isobutyramido-2-methoxybenzoyl)thioureido]benzoate], the melting point was 245 to 247 °C. In series [3], this molecule registered a Ki greater than 100000 nM. In series [1], the Ki came out at 1500 nM. In addition, the inhibition constant Ki in series [4] was greater than 100000 nM. In series [2], this molecule yielded a Ki greater than 100000 nM.

`CCOC(=O)c1ccc(NC(=S)NC(=O)c2ccc(NC(=O)c3ccc(C)cc3)cc2OC)cc1` [Compound 14c, Ethyl-4-[3-(2-methoxy-4-(4-methylbenzamido)benzoyl)thioureido]benzoate] showed a melting point of 257 to 259 °C. Besides, the Ki in series [3] was greater than 100000 nM. In series [1], this molecule displayed a Ki of 1370 nM. In series [4], the affinity corresponds to a Ki of 2020 nM. This molecule also had a Ki in series [2] greater than 100000 nM.

Regarding `O=C(NC(=S)Nc1ccccc1)c1ccc(C(F)(F)F)cc1` [III], the concentration for half-maximal inhibition (IC50) in series [5] is 2480 nM.

For the molecule `COc1ccc(NC(=S)NC(=O)c2ccc(C(F)(F)F)cc2)cc1OC` [II], the IC50 in series [5] is 1900 nM.

Take `CC(=O)NC(=S)Nc1ccc(S(N)(=O)=O)cc1` [IV]: the concentration for half-maximal inhibition (IC50) in series [5] is 2140 nM.

Usually Ki stands for a dissociation constant, usually derived from enzyme kinetics or from competition with a known ligand. Usually melting point stands for the temperature, or range, at which the solid turns liquid. One may read the IC50 as the concentration needed to halve the response being measured.
